US10220010B2 (AuXin Surgery SA, priority 2014, dated 2019)
“And” between values parts separate entries of the source, which are not always exact repeats. Equal entries are not always repeated.

Assay: impurities levels (Mesna disulphide percentage) of lyophilizate Mesna compositions
Format: physicochemical
Conditions: content in composition
Method: Measurements of Mesna disulfide percentage were conducted for different Mesna lyophilizates made according to the present invention. The compositions of the tested Mesna lyophilizates comprised 125 mg or 250 mg of Mesna in 2 ml Water for Injection. Other tested Mesna lyophilizates compositions further comprised trehalose or Mannitol. […] Any slightly higher increase was of maximum 0.5% compared to the Mesna disulfide percentage measured for the pharmaceutical grade Mesna (Table 2). […] In addition, the sum of Mesna disulphide percentage and other impurities percentage was also always lower than said maximum of 3%.

O=S(=O)([O-])CCS.[Na+] [Mesna P, Sodium 2-mercaptoethanesulfonate]
MESNA: 98.82% and 98.80% and 98.96% | Other impurities: 0.15% and 0.20% and 0.19% | Mesna disulphide (stability marker): 1.03% and 1.00% and 0.85%
